The term EC50 denotes the midpoint of the concentration-response curve.

Our source for the EC50 values is patent publication US8957062B2, “Substituted cyclopropyl compounds, compositions containing such compounds and methods of treatment” (Merck Sharp & Dohme Corp., priority 2011, dated 2015).

The target in the first assay is T1, human GPR119 (Homo sapiens, UniProt Q8TDV5).
T1 sequence (Q8TDV5 1-308 limits assumed): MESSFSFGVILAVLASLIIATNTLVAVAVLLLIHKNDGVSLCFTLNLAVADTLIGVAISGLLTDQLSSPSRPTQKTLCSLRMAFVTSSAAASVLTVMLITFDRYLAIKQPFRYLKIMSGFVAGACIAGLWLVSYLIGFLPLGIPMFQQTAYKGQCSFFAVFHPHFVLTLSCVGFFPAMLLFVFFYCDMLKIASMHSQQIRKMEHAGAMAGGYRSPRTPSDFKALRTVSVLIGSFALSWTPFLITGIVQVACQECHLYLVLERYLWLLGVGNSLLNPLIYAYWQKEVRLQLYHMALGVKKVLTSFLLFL
Briefly: Measurement of GPR119 signaling (cAMP assay) in cells stably transfected with human GPR119. Type of assay: cell-based. The conditions noted are these: cAMP stimulation; read-out: GPR119 HumC EC50. The protocol: Measurement of GPR119 Signaling (Cyclic AMP (cAMP) Assay)
The adenylate cyclase assay was constructed following the LANCE™ cAMP Kit (Perkin Elmer, AD0264) instructions.
The reaction was stopped by incubating with the supplied detection buffer containing the europium chelate of the Eu-SA/Biotin-cAMP tracer for 3 hours. The assay was performed in duplicate in a 384 well plate for duplicate plates and fluorescence was measured at 665 nm. Basal activity was determined using a DMSO control and maximum response was defined as cAMP stimulation produced by an internal agonist control. Standard cAMP concentrations were assayed concurrently for conversion of fluorescence signal to cAMP level. The data was analyzed using 4-parameter curve fit in Microsoft Excel.
Measurement of GPR119 Signaling (cAMP Homogenous Time Resolved Fluorescence (HTRF) Assay)
Chinese hamster ovary (CHO) cell lines stably transfected with the permissive guanine nucleotide binding protein alpha 15 (Gα15) and murine GPR119 were maintained in DMEM media containing FBS, penicillin-streptomycin, puromycin, and G418 (geneticin). […] Agonist activation of the GPR119 receptor was measured in receptor transfected cells described above, treated with compounds of this invention, using a commercial homogenous time resolved fluorescence (HTRF) kit for measurement of cAMP (CisBio, Bedford, Mass.). The assay was performed in 96-well half-volume plates (murine) or 384-well plates (human) following the manufacturers instructions. Briefly, suspended cells were incubated with a dose titration of test compound at RT for 60 min, lysed, and incubated with HTRF reagents for an additional 60 min. The plate was read using an Envision multilabel reader (Perkin Elmer) adjusted to read time resolved fluorescence and the cAMP concentrations were extrapolated from a cAMP calibration curve. […] The concentration of test compound required to stimulate a half-maximal response (EC50), and efficacy as compared to an internal agonist control, was determined from a sigmoidal 4-parameter curve fit of the resulting plot of normalized activity versus compound concentration.
Consider `Cc1cc(OCC[C@@H]2C[C@@H]2C2CCN(c3nc(C(C)C)no3)CC2)ccc1CC(=O)N1CCC1` [Example 102], for which the EC50 was determined as 1.1 nM.
The same measure, in the same setting: the figure for `CC(C)c1noc(N2CCC([C@H]3C[C@H]3CCOc3ccc(CC(=O)N4CCC4)c(Cl)c3)CC2)n1` [Example 103] is 0.58 nM; for `COCc1noc(N2CCC([C@H]3C[C@H]3CCOc3ccc(CC(=O)N4CCC4)c(Cl)c3)CC2)n1` [Example 104] it is 2.6 nM.
Same read-out and setting: next, `CC(C)c1noc(N2CCC([C@H]3C[C@H]3CCOc3ccc(CC(=O)N4CCC4)c(C#N)c3)CC2)n1` [Example 105]: 2 nM.
The same measure, in the same setting: the figure for `Cc1cc(OCC[C@@H]2C[C@@H]2C2CCN(c3nc(C(C)C)no3)CC2)ccc1CC(=O)N(C)C` [Example 106] is 3.4 nM; for `COCc1noc(N2CCC([C@H]3C[C@H]3CCOc3ccc(CC(=O)N(C)C)c(C)c3)CC2)n1` [Example 107] it is 5.2 nM; for `CC(C)c1noc(N2CCC([C@H]3C[C@H]3CCOc3cc(F)c(CC(=O)N4CCC4)c(F)c3)CC2)n1` [Example 109] it is 0.24 nM.
In the case of `CC(C)c1noc(N2CCC([C@H]3C[C@H]3CCOc3cc(F)c(CC(=O)N4CC(F)C4)c(F)c3)CC2)n1` [Example 110], the EC50 stood at 0.12 nM.
On the same count and under the same terms, next, `CC(C)c1noc(N2CCC([C@H]3C[C@H]3CCOc3cc(F)c(CC(=O)N(C)C)c(F)c3)CC2)n1` [Example 111]: 0.26 nM; `CC(C)c1noc(N2CCC([C@H]3C[C@H]3CCOc3cc(F)c(CC(=O)N4CC(C)(O)C4)c(F)c3)CC2)n1` [Example 112]: 2.4 nM; `COC1CN(C(=O)Cc2c(F)cc(OCC[C@@H]3C[C@@H]3C3CCN(c4nc(C(C)C)no4)CC3)cc2F)C1` [Example 113]: 0.33 nM.
For the molecule `CC(C)c1noc(N2CCC([C@H]3C[C@H]3CCOc3cc(F)c(CC(=O)N4CCOCC4)c(F)c3)CC2)n1` [Example 114], the 50% effective concentration (EC50) is 0.19 nM.

Still in this assay, the particulars now being: stated in the example text without 'GPR119'; read-out: Human EC50.
Take `CC(C)c1noc(N2CCC([C@H]3C[C@H]3CCOc3ccc(CC(=O)N4CCC4)cc3F)CC2)n1` [Example 101, 4-((1R,2S)-2-{2-[4-(2-azetidin-1-yl-2-oxoethyl)-2-fluorophenoxy]ethyl}cyclopropyl)-1-(3-isopropyl-1,2,4-oxadiazol-5-yl)piperidine]: the concentration giving a half-maximal response (EC50) is 5.3 nM.

Staying with this assay, now noted: stated in the example text; cAMP stimulation, human GPR119; read-out: GPR119 Human EC50.
For the molecule `CC(C)c1noc(N2CCC([C@H]3C[C@H]3CCOc3ccc(-n4cnnn4)cc3)CC2)n1` [Example 98, 5-(4-((1R,2S)-2-(2-(4-(1H-tetrazol-1-yl)phenoxy)ethyl)cyclopropyl)piperidin-1-yl)-3-isopropyl-1,2,4-oxadiazole], the EC50 came out at 11.8 nM.
In the case of `CC(C)c1noc(N2CCC([C@H]3C[C@H]3CCOc3ccc(CC(=O)N4CCC4)cc3)CC2)n1` [Example 99, 4-[(1R,2S)-2-{2-[4-(2-azetidin-1-yl-2-oxoethyl)phenoxy]ethyl}cyclopropyl]-1-[3-(1-methylethyl)-1,2,4-oxadiazol-5-yl]piperidine], the concentration for a half-maximal effect (EC50) amounted to 1.8 nM.
On to `CC(C)c1noc(N2CCC([C@H]3C[C@H]3CCOc3ccc(CC(=O)N4CC(F)C4)c(F)c3)CC2)n1` [Example 100, 4-[(1R,2S)-2-(2-{3-fluoro-4-[2-(3-fluoroazetidin-1-yl)-2-oxoethyl]phenoxy}ethyl)cyclopropyl]-1-(3-isopropyl-1,2,4-oxadiazol-5-yl)piperidine], for which the half-maximal effective concentration (EC50) amounted to 0.4 nM.
On the same count and under the same terms, the figure for `CC(C)c1noc(N2CCC([C@H]3C[C@H]3CCOc3cc(F)c(CC(=O)N4CC(O)C4)c(F)c3)CC2)n1` [Example 108, 1-[(2,6-difluoro-4-{2-[(1S,2R)-2-{1-[3-(1-methylethyl)-1,2,4-oxadiazol-5-yl]piperidin-4-yl}cyclopropyl]ethoxy}phenyl)acetyl]azetidin-3-ol] is 0.96 nM; for `COCc1noc(N2CCC([C@H]3C[C@H]3CCOc3ccc(CC(=O)N4CCC4)c(F)c3)CC2)n1` [Example 115, 4-[(1R,2S)-2-{2-[4-(2-azetidin-1-yl-2-oxoethyl)-3-fluorophenoxy]ethyl}cyclopropyl]-1-[3-(methoxymethyl)-1,2,4-oxadiazol-5-yl]piperidine] it is 5.8 nM; for `COCc1noc(N2CCC([C@H]3C[C@H]3CCOc3cc(F)c(CC(=O)N4CC(F)C4)c(F)c3)CC2)n1` [Example 116, 4-[(1R,2S)-2-(2-{3,5-difluoro-4-[2-(3-fluoroazetidin-1-yl)-2-oxoethyl]phenoxy}ethyl)cyclopropyl]-1-[3-(methoxymethyl)-1,2,4-oxadiazol-5-yl]piperidine] it is 1.4 nM.

The same assay, now with this note: table column; cAMP stimulation, human GPR119; read-out: GPR119 Human EC50.
As for `CS(=O)(=O)c1ccc(OCC[C@@H]2C[C@@H]2C2CCN(C(=O)Cc3cccs3)CC2)nc1` [Example 91], the EC50 was 36 nM.
Same read-out and setting: the figure for `CS(=O)(=O)c1ccc(OCC[C@@H]2C[C@@H]2C2CCN(C(=O)CC3CCC3)CC2)cc1F` [Example 92] is 10 nM; for `CS(=O)(=O)c1ccc(OCC[C@@H]2C[C@@H]2C2CCN(C(=O)CC3CCCC3)CC2)cc1F` [Example 93] it is 4.6 nM; for `CC(C)CC(=O)N1CCC([C@H]2C[C@H]2CCOc2ccc(S(C)(=O)=O)c(F)c2)CC1` [Example 94] it is 19 nM.
Take `CC(C)(C)CC(=O)N1CCC([C@H]2C[C@H]2CCOc2ccc(S(C)(=O)=O)c(F)c2)CC1` [Example 95]: the EC50 amounted to 5.4 nM.
Take `Cc1nc(C#N)cc(OCC[C@@H]2C[C@@H]2C2CCN(C(=O)CCC(F)(F)F)CC2)n1` [Example 96]: the EC50 came to 43 nM.
Still for that read-out and setting: next, `O=C(NC1CC1)c1c(F)cc(OCC[C@@H]2C[C@@H]2C2CCN(C(=O)CCC(F)(F)F)CC2)cc1F` [Example 97]: 3.5 nM.
Same read-out and setting: next, `CC(C)c1noc(N2CCC([C@H]3C[C@H]3CCOc3ccc(C(=O)C4CC4)c(F)c3)CC2)n1` [Example 117]: 0.6 nM; `Cc1nc(C#N)cc(OCC[C@@H]2C[C@@H]2C2CCN(c3nc(C(C)C)no3)CC2)n1` [Example 118]: 0.4 nM.
For the molecule `CC(C)c1noc(N2CCC([C@H]3C[C@H]3CCOc3ccc(S(C)(=O)=O)c(F)c3)CC2)n1` [Example 119], the half-maximal effective concentration (EC50) is 1.3 nM.
Same read-out and setting: the figure for `CC(C)c1noc(N2CCC([C@H]3C[C@H]3CCOc3cc(F)c(C(=O)C4CC4)c(F)c3)CC2)n1` [Example 120] is 0.1 nM.
On the same count and under the same terms, next, `CCCC(=O)c1c(F)cc(OCC[C@@H]2C[C@@H]2C2CCN(c3nc(C(C)C)no3)CC2)cc1F` [Example 121]: 0.1 nM; `CC(C)c1noc(N2CCC([C@H]3C[C@H]3CCOc3cc(F)c(C(=O)NC(C)(C)CO)c(F)c3)CC2)n1` [Example 122]: 10 nM.
The same measure, in the same setting: the figure for `CC(C)c1noc(N2CCC([C@H]3C[C@H]3CCOc3ccc(S(C)(=O)=O)cc3F)CC2)n1` [Example 123] is 3.8 nM; for `Cc1cc(OCC[C@@H]2C[C@@H]2C2CCN(c3nc(C(C)C)no3)CC2)ccc1-n1cnnn1` [Example 124] it is 2.6 nM; for `COc1cc(OCC[C@@H]2C[C@@H]2C2CCN(c3nc(C(C)C)no3)CC2)ccc1-n1cnnn1` [Example 125] it is 11 nM.
`CC(C)c1noc(N2CCC([C@H]3C[C@H]3CCOc3ccc(CC(=O)N4CCCC4)cc3)CC2)n1` [Example 126]: the EC50 was 1.4 nM.
With `CC(C)c1noc(N2CCC([C@H]3C[C@H]3CCOc3ccc(CC(=O)N4C[C@@H](F)[C@H](F)C4)cc3)CC2)n1` [Example 127], the 50% effective concentration (EC50) is 1.1 nM.
Same read-out and setting: the figure for `CC(C)c1noc(N2CCC([C@H]3C[C@H]3CCOc3ccc(CC(=O)N4CCC4)cc3)CC2)n1` [Example 128] is 1.8 nM; for `CC(C)c1noc(N2CCC([C@H]3C[C@H]3CCOc3ccc(CC(=O)N4CC(F)C4)cc3)CC2)n1` [Example 129] it is 1.5 nM.
Still for that read-out and setting: next, `CC(C)c1noc(N2CCC([C@H]3C[C@H]3CCOc3ccc(S(C)(=O)=O)nc3)CC2)n1` [Example 130]: 10.6 nM; `CC(C)c1noc(N2CCC([C@H]3C[C@H]3CCOc3ccc(CC(=O)N4CC(F)(F)C4)cc3)CC2)n1` [Example 132]: 2.7 nM.
